The values that follow come from US11865110B2, “Thrombin inhibitors, formulations, and uses thereof” (VERSEON INTERNATIONAL CORPORATION, priority 2018, dated 2024).

A short description of series [1]: Mouse liver microsome stability. The format is in vitro ADME, mouse (CD-1). The note with it: pH 7.4; CD-1 mouse liver microsomes 0.5 mg/mL, NADPH, 37° C.; lower measurable bound 5. As for the experimental part:
(§1) In a 96-well Nunc™ plate, 1.5 μL of a 200 μM solution of the test compound in DMSO were placed in a well. This plate, the “Reaction Plate,” was then warmed to 37° C. in an oven. In a second 96-well Nunc™ plate, the “Quench Plate,” six wells were filled with 180 μL of an internal standard quench solution composed of 100 nM diclofenac in acetonitrile. These six wells correspond to the six time points for data collection: 0, 0.5, 5, 15, 30, and 60 minutes. “Assay Buffer” was prepared by combining 6.96 g potassium phosphate, dibasic, 1.36 g potassium phosphate, monobasic, and 0.30 g of magnesium chloride hexahydrate, then diluting to a final concentration of 500 mL in water and adjusting to pH 7.4, as needed. Assay Buffer was warmed to 37° C., and 12 mL were added to a 10-mg vial of NADPH. Then 300 μL of a 20 mg/mL liver microsome suspension were added to yield a 0.5 mg/mL liver microsome suspension. 300 μL of this liver microsome suspension was then added to the test compound solution in the Reaction Plate and mixed thoroughly with a pipette tip. At each time point, 30 μL of this mixture was transferred to the corresponding well of the Quench Plate. In between time points, the Reaction Plate was kept sealed and warmed in an incubator at 37° C. When the last time point had been completed, the quench plate was centrifuged at 4° C. at 1000×g for 10 minutes. Afterwards, 50 μL of the supernatant of each well was transferred to unique, corresponding wells of a 96-well Costar® plate, the “Analysis Plate,” filled with 150 μL of 50:50 acetonitrile:HyClone™ water. The Analysis Plate was then sealed with a pre-slit plate seal before analysis via an appropriate LCMS method with a 10 μL injection. The abstracted AUC data were then automatically plotted to calculate intrinsic clearance in μL/min/mg. This experiment was run alongside a positive and negative control. Due to the parameters of this procedure, one of skill in the art will appreciate that this assay has a lower measurable bound of 5 μL/min/mg; therefore, certain compounds have their clearances labeled as ≤5 μL/min/mg.
A general note: Liver microsomes are vesicles of endoplasmic reticulum, rich in cytochrome P450 enzymes.

Series [2] is described as follows: Rat liver microsome stability. Particulars: Sprague-Dawley, pH 7.4; SD rat liver microsomes 0.5 mg/mL, NADPH, 37° C.; lower measurable bound 5. The format is in vitro ADME. As for the experimental part: as §1
The nature of a further series: Mouse plasma stability. Type of series: in vitro ADME, mouse (CD-1). Particulars: CD-1 mouse plasma, 37° C., time points to 160 min; read-out: Mouse Plasma Stability t1/2. As for the experimental part:
Alongside a positive control of propantheline bromide, 8 μL of a 1 mM solution of each test compound in DMSO was placed in two wells of a Nunc™ 96-well plate called the “dilution plate.” To one well, 392 μL of HyClone™ water was added and mixed by a pipette. To the other well, 392 μL of mouse or rat plasma stabilized with sodium citrate purchased from Innovative Research was added and mixed by a pipette. The dilution plate was kept covered to reduce solvent evaporation and heated in an incubator at 37° C. At each of the time points enumerated below, the plate was removed from the incubator and 50 μL of the test compound/water or test compound/plasma solutions were transferred to a unique, corresponding well in a “quench plate” (96-well Costar® plate) that contains 150 μL of a quench solution that contains an internal standard (20 uM diclofenac in acetonitrile). The dilution plate was then returned to the incubator. This process was performed at 0, 5, 10, 20, 40, 80, and 160 minutes from the original mixing of the test compounds with the water or plasma in the dilution plate. After the quenching of the 160-minute time point, the quench plate was then centrifuged at 4° C. at 1000×g for 10 minutes. 100 μL of the supernatant of each well were then transferred to corresponding unique wells in a “read plate” (96-well Costar® plate) that were filled with 100 μL of HyClone™ water. The plate was then sealed and analyzed via UHPLC using a 10-μL sample injection through a Phenomenex® Kinetex column pre-equilibrated with the loading buffer (95:5 water:acetonitrile). The parameters were as follows. Mobile Phase A: water, 0.025% formic acid. Mobile Phase B: acetonitrile, 0.025% formic acid. Flow Rate: 0.5 mL/min. […] Half-life (t1/2) times were computed by using a chi-square analysis to fit the peak areas to an exponential decay model for compound concentration as a function of time.

Series [3] concerns platelet activation (mouse thrombin). Nature of the series: Inhibition of platelet activation in CD-1 mouse plasma. The format is cell-based. Particulars: CD-1 mouse platelet-rich plasma, Chrono-Lume luminescence, read-out: EC50 towards inhibited platelet activation. As for the experimental part:
Assays for inhibition of platelet activation in mouse plasma were performed by the following procedure. Test compounds and positive controls were first diluted in a three-fold series in DMSO to generate a range of concentrations for each from 1500 to 0.08 μM. 2 μL of each sample solution was then placed in corresponding wells of a 96-well plate (the “assay plate”) containing 88 μL of a platelet-rich plasma (PRP) mix described below. 10 μL of a 10 nM solution of mouse thrombin in assay buffer (described below) was then added to each well of the assay plate. The plate was then shaken on a Lab-Line Instruments Inc. titer plate shaker for 2 minutes at 300 RPM. 10 uL of Chrono-Lume® solution was then added to each well. The plate was again shaken for 3 minutes at 300 RPM. Luminescence data were recorded from a plate reader. Each sample was measured in duplicate and against blanks with and without mouse thrombin to record background and maximum signal measurements. The IC50 data were automatically calculated from the measured luminescence counts by means appreciated by one of skill in the art.
The various solutions involved in this procedure are described as follows. Assay buffer was made by combining 7.5 mL of 5 M NaCl with 1.19 g of HEPES powder, 0.5 mL of 1 M MgCl2, 1.5 mL of 1 M KCl and 235 mL of water in a 500 mL flask. The solution's pH was adjusted to 7.4 using 10 N NaOH, and then brought up to a final volume of 250 mL using water. A 20 mM solution of H-Gly-Pro-Arg-Pro-OH (GPRP) in this assay buffer was made from commercially obtained powder. The PRP Mix was made by first centrifuging down 600 μL of whole CD-1 mouse blood in 1.8 mL sodium citrate vacutainers at 100×g for 10 minutes at room temperature in an Eppendorf 5810 R centrifuge. The plasma layer was then extracted along with as much as possible of the buffy coat into storage vials. Extractions from multiple animals were often pooled together. To make the final mix, 2.3 mL of these plasma extractions was combined with 7.2 mL of the above assay buffer and 0.5 mL of the 20 mM GPRP solution. […]

As to `CC(C)(C)C(=O)n1nc(-c2cccn(CCCC(=O)O)c2=O)cc1NCc1ccc(Cl)s1` [Compound 5, 4-[3-(5-{[(5-chlorothiophen-2-yl)methyl]amino}-1-(2,2-dimethylpropanoyl)-1H-pyrazol-3-yl)-2-oxo-1,2-dihydropyridin-1-yl]butanoic acid], the microsomal CLint at 1 µM in series [1] is 29 µL/min/mg; in series [2], 10 µL/min/mg. Also, the half-life at 20 µM in “Mouse plasma stability” amounted to 3.83 h.

Molecule `CC(C)(C)C(=O)n1nc(-c2cccn(CCC(N)=O)c2=O)cc1NCc1ccc(Cl)s1` [Compound 8, 3-[3-(5-{[(5-chlorothiophen-2-yl)methyl]amino}-1-(2,2-dimethylpropanoyl)-1H-pyrazol-3-yl)-2-oxo-1,2-dihydropyridin-1-yl]propanamide] displayed a microsomal CLint at 1 µM in series [1] of 100 µL/min/mg. In addition, the half-life at 20 µM in the series “Mouse plasma stability” was determined as 2.67 h.

`CC(C)(C)C(=O)n1nc(-c2cccn(CCC(=O)O)c2=O)cc1NCc1ccc(Cl)s1` [Compound 1, 3-[3-(5-{[(5-chlorothiophen-2-yl)methyl]amino}-1-(2,2-dimethylpropanoyl)-1H-pyrazol-3-yl)-2-oxo-1,2-dihydropyridin-1-yl]propanoic acid]: the microsomal CLint at 1 µM is 5 to 11 µL/min/mg in series [1] and at most 5 µL/min/mg in series [2]. Besides, in “Mouse plasma stability”, the half-life at 20 µM is at least 3 h. For the same molecule, the EC50 in series [3] was 15 µM.

In the case of `CC(C)(C)C(=O)n1nc(-c2cccn(CC(=O)O)c2=O)cc1NCc1ccc(Cl)s1` [Compound 4, 2-[3-(5-{[(5-chlorothiophen-2-yl)methyl]amino}-1-(2,2-dimethylpropanoyl)-1H-pyrazol-3-yl)-2-oxo-1,2-dihydropyridin-1-yl]acetic acid], the microsomal CLint at 1 µM in series [1] and in series [2] was at most 5 µL/min/mg throughout. Besides, the half-life at 20 µM in the series “Mouse plasma stability” was at least 5 h. Besides, the EC50 in series [3] was determined as 15 µM.

In the case of `CC(C)(N)Cn1cccc(-c2cc(NCc3ccc(Cl)s3)n(C(=O)c3ccoc3)n2)c1=O` [Compound 9, 1-(2-amino-2-methylpropyl)-3-(5-{[(5-chlorothiophen-2-yl)methyl]amino}-1-(furan-3-carbonyl)-1H-pyrazol-3-yl)-1,2-dihydropyridin-2-one], the microsomal CLint at 1 µM was 11 µL/min/mg in series [1] and at most 5 µL/min/mg in series [2]. Moreover, in the series “Mouse plasma stability”, the half-life at 20 µM amounted to 2.67 h. Also, the EC50 in series [3] stood at 0.032 µM.

On to `CCC(C)(C)C(=O)n1nc(-c2cccn(CCC(=O)O)c2=O)cc1NCc1ccc(Cl)s1` [Compound 11, 3-[3-(5-{[(5-chlorothiophen-2-yl)methyl]amino}-1-(2,2-dimethylbutanoyl)-1H-pyrazol-3-yl)-2-oxo-1,2-dihydropyridin-1-yl]propanoic acid], for which the microsomal CLint at 1 µM in series [1] is 31 µL/min/mg; in series [2], 14 µL/min/mg. Also, the half-life at 20 µM in the series “Mouse plasma stability” is at least 5 h.

For `O=C(O)CCn1cccc(-c2cc(NCc3ccc(Cl)s3)[nH]n2)c1=O` [Compound 2, 3-[3-(5-{[(5-chlorothiophen-2-yl)methyl]amino}-1H-pyrazol-3-yl)-2-oxo-1,2-dihydropyridin-1-yl]propanoic acid], the microsomal CLint at 1 µM in series [1] and in series [2] was at most 5 µL/min/mg in each case. The half-life at 20 µM in the series “Mouse plasma stability” is at least 5 h.

Consider `O=C(O)Cn1cccc(-c2cc(NCc3ccc(Cl)s3)[nH]n2)c1=O` [Compound 3, 2-[3-(5-{[(5-chlorothiophen-2-yl)methyl]amino}-1H-pyrazol-3-yl)-2-oxo-1,2-dihydropyridin-1-yl]acetic acid], for which the microsomal CLint at 1 µM in series [1] and in series [2] was at most 5 µL/min/mg throughout. Moreover, in the series “Mouse plasma stability”, the half-life at 20 µM is at least 5 h.

As for `O=C(O)CCn1cccc(-c2cc(NCc3ccc(Cl)s3)n(C(=O)c3ccoc3)n2)c1=O` [Compound 12, 3-[3-(5-{[(5-chlorothiophen-2-yl)methyl]amino}-1-(furan-3-carbonyl)-1H-pyrazol-3-yl)-2-oxo-1,2-dihydropyridin-1-yl]propanoic acid], in series [1], the microsomal CLint at 1 µM is at most 5 µL/min/mg. Besides, in “Mouse plasma stability”, the half-life at 20 µM worked out at 3.67 h.

Usually microsomal CLint stands for the capacity of the preparation to metabolise the compound, expressed as a volume cleared per time. A high value points to faster metabolism. As a reminder, the EC50 is the concentration giving half of the maximal effect.
